Data as given in ChEMBL document CHEMBL1201862, “PubChem BioAssay data set” (2004).
The source made the active and inactive calls.

Tests used:
[1] = inhibitors of PGC1a acetylation in cells, dose response, cell-based, cherry-picked samples (AID 720514); type: functional;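 also: potency may reflect raised or lowered acetylation signal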
[2] = cytotoxicity in OVCAR8 ovarian cancer cells, dose response, PAX8 project, cell-based, plate reader, dry powder samples (AID 743197); type: functional; conditions: OVCAR-8
[3] = inhibitors of CMV-promoter luciferase reporter, dose response, counter-screen for Pax8 inhibitor project, cell-based, HEK293, luminescence, dry powder (AID 743020); type: functional
Paired box protein Pax-8 = Paired box protein Pax-8 (Homo sapiens, UniProt Q06710); assay: inhibitors of PAX8-driven TPO luciferase reporter, dose response, RMG-I cells, cherry-pick (AID 687027); type: functional, cell-based;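 also: luciferase reporter driven by Pax8 target thyroperoxidase promoter measured by SteadyGlo luminescence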
[4] = Luminescence Cell-Based Dose Retest to Confirm Inhibitors of Cancer Stem Cells. [Related pubchem assays (depositor defined):AID2717, AID2721]; type: functional; conditions: Homo sapiens
[5] = human group III sPLA2 inhibitors, dose response, biochemical, QFRET, IC50 (AID 743457);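 also: green fluorescence rise as the enzyme cleaves BODIPY PC-A2 in liposomes; potency for inhibition of the enzyme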
[6] = target: Heat shock protein HSP 90-alpha (Homo sapiens, UniProt P07900); type: functional, organism-based
INS1 = assay: beta cell apoptosis inhibitors, cytokine rescue, dose response, luminescence, retest (AID 449756); type: functional, cell-based; conditions: Rattus norvegicus;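 also: cell death triggered by IL-1 beta plus TNF-alpha plus IFN-gamma mixture; protective hits raise ATP signal compared with cytokine alone wells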
[7] = reduction of Shn3 3'UTR firefly luciferase signal, dose response, Schnurri-3 inhibitor project, cell-based, Clone20 osteoblasts, cherry-pick, set 2 (AID 720490); type: functional;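 also: actives lower the luminescence signal as inhibitors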
[8] = HepG2 cell cytotoxicity, dose response, cytotoxicity control for Shn3 inhibitor project, CellTiter-Glo, cherry-picked (AID 624134); type: functional, cell-based
[9] = control 3'UTR Renilla luciferase suppression, dose response, counter-screen for Shn3 inhibitor project, cell-based, Clone20-Shn3RL, cherry-picked (AID 624133); type: functional
[10] = Shn3 3'UTR reporter inhibitors, dose response, cell-based, Clone20 osteoblasts, firefly luciferase, cherry-picked (AID 624132); type: functional;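 also: firefly luciferase luminescence from reporter carrying the Shn3 3'UTR in osteoblasts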
HEK293 = assay: HEK293T cell cytotoxicity, dose response, cytotoxicity control, ATP luminescence, cherry-pick samples (AID 687005); type: functional, cell-based; conditions: Homo sapiens;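 also: cells exposed to compound for 48 hours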
[11] = HEK293 Cytotoxicity Assay Measured in Cell-Based System Using Plate Reader - 7071-01_Inhibitor_Dose_CherryPick_Activity_Set2.; type: functional
Large T antigen = Large T antigen (Simian virus 40, UniProt P03070); type: functional, Betapolyomavirus macacae;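 also: Confirmatory-stage PubChem screen for compounds that inhibit SV40 T antigen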
[12] = target: T1, Histone-lysine N-methyltransferase NSD2 (Homo sapiens, UniProt O96028); type: biochemical
T1 sequence (O96028 whole entry): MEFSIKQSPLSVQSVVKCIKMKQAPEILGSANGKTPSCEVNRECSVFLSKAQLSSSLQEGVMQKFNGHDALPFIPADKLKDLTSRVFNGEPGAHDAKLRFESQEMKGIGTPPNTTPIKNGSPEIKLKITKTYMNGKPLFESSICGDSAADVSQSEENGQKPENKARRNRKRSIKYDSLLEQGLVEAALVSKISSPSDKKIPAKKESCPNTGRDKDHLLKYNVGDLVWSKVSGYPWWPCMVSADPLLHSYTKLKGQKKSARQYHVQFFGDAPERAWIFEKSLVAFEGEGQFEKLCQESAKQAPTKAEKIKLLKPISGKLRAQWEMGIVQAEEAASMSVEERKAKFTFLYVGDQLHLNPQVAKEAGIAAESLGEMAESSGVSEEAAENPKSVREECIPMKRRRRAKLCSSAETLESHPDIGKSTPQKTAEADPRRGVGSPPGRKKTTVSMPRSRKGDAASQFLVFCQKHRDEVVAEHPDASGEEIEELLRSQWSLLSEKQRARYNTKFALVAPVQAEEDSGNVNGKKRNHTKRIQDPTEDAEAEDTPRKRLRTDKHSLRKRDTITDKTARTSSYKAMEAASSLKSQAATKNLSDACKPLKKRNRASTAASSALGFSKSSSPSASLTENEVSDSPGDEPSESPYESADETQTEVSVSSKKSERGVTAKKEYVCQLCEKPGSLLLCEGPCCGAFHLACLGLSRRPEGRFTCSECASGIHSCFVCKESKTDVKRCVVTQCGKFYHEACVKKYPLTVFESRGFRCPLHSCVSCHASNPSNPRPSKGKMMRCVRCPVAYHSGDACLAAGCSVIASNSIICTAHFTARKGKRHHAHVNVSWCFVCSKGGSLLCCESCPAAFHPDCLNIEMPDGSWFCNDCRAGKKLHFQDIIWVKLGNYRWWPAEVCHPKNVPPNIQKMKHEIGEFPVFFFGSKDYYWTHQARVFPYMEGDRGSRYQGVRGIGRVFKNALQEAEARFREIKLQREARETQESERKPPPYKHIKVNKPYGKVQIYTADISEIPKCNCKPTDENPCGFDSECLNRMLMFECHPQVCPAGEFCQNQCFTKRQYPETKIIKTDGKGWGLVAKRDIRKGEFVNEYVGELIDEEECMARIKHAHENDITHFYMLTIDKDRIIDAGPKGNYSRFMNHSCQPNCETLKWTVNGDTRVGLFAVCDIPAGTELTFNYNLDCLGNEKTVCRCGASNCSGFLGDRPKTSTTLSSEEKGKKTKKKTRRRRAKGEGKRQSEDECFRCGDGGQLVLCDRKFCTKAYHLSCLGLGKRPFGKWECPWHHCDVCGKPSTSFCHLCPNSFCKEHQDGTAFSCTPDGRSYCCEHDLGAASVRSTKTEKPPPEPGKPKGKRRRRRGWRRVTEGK

Albumin = Albumin (Bos taurus, UniProt P02769); assay: Counterscreen for inhibitors of T-cell receptor (TCR)-CD3 interaction: Fluorescence-based biochemical high throughput dose response assay to identify inhibitors of T-cell receptor (TCR)-CD3 interaction using a TAMRA-labeled BSA probe.; type: functional
HT-1080 = assay: cytotoxicity in HT1080 fibrosarcoma cells, cell-based, fluorescence readout (AID 620); type: functional; conditions: Homo sapiens
[13] = target: Luciferin 4-monooxygenase (Photinus pyralis, UniProt P08659); assay: Counter Screen for Luciferase-based Assay Positives. [Related pubchem assays: 620, 618, 411 ]
Major prion protein = Major prion protein (Homo sapiens, UniProt P04156); type: functional, cell-based
Streptococcus = assay: Group A Streptococcus viability loss, dose response, counter-screen for streptokinase expression inhibitor project, luminescence, BacTiterGlo (AID 1915); type: functional, organism-based;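 also: potency for reduction of bacterial viability or growth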
Streptokinase A = target: T2, Streptokinase A (Streptococcus pyogenes serotype M1, UniProt P10520); assay: S. pyogenes streptokinase expression inhibitors, potency, dose response, plasminogen activation absorbance, OD405 (AID 1914); type: functional, Streptococcus pyogenes M1 GAS;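 also: secreted streptokinase activity via plasminogen activation per viability signal from cell pellet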
T2 sequence (P10520 whole entry): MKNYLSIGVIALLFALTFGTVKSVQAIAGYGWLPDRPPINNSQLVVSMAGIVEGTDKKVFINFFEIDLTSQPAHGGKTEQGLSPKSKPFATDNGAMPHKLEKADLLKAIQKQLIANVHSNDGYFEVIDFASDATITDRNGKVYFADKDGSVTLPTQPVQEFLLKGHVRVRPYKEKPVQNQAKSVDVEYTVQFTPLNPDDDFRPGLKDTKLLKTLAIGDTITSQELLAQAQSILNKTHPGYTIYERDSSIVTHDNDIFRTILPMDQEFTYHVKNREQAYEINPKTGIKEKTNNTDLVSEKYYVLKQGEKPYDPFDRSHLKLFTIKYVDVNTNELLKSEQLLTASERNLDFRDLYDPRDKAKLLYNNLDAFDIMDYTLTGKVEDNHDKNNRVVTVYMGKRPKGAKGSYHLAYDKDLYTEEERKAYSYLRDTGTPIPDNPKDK

[14] = target: T3, Heat shock factor protein 1 (Mus musculus, UniProt P38532); assay: inhibition of MG132-induced HSE-luciferase signal, confirmation, cell-based, NIH3T3, luminescence, dose retest (AID 2382); type: functional;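 also: NIH3T3 fibroblasts with HSF1-driven luciferase reporter stressed by proteasome inhibitor MG132; luminescence from HSF1-driven luciferase expression after 8 hours of MG132 stress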
T3 sequence (P38532 whole entry): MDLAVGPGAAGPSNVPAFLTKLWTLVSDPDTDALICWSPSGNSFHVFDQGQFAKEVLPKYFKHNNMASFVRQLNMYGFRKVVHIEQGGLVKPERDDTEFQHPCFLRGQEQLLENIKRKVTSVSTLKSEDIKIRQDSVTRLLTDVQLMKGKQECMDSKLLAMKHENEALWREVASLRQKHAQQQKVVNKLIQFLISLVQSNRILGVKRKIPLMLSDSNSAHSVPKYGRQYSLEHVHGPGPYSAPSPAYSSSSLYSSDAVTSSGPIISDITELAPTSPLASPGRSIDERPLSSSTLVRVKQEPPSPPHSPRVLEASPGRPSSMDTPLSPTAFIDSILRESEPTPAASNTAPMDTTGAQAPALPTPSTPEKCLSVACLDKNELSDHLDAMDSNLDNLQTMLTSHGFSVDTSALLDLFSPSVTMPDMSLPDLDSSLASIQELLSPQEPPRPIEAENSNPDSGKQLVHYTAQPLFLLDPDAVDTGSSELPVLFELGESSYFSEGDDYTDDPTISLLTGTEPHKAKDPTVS

[15] = HEp-2 cell cytotoxicity, dose response, cytotoxicity control for RSV inhibitor project, HTS (AID 2410); type: functional; conditions: human respiratory syncytial virus
[16] = system: Streptococcus sp. 'group A'; assay: growth inhibition of control SK(-) GAS strain, dose response, counter-screen for streptokinase expression inhibitor project, luminescence, kanamycin, BacTiterGlo, confirmation (AID 1900); type: functional, organism-based

SMILES: C[C@@H]1CCCCO[C@H](CN(C)Cc2ccc3c(c2)OCO3)[C@@H](C)CN([C@@H](C)CO)C(=O)c2cc(NC(=O)Nc3ccc(C(F)(F)F)cc3)ccc2O1
- AC50 [1]: 11.3 µM (active)
- AC50 [2]: 19.6 µM (active)
- AC50 [3]: 41.9 µM (active)
- AC50 (Paired box protein Pax-8): 17.3 µM (active)

SMILES: O=C(/C=C/c1ccccc1)NC(=S)NNC(=O)c1cnccn1
- AC50 [4]: 8.78 µM (active)
- IC50 [5]: 66.8 µM (inactive)
- AC50 [6]: 2.87 µM (active)
- AC50 (INS1): 1.39 µM (active)

SMILES: O=C(Nc1ccc(Cl)cc1)c1cc(S(=O)(=O)N2CCOCC2)cs1
- AC50 [7]: 4.83 µM (active)
- AC50 [8]: 46.9 µM (active)
- AC50 [9]: 14.7 µM (active)
- AC50 [10]: 4.23 µM (active)

SMILES: C[C@H](CO)N1C[C@H](C)[C@H](CN(C)Cc2ccc(Cl)c(Cl)c2)Oc2c(NC(=O)Nc3ccccc3)cccc2C1=O
- AC50 (HEK293): 18.8 µM (active)
- AC50 [11]: 18.8 µM (active)

SMILES: Cc1c(CC(=O)N2CCN(C(=O)C3COc4ccccc4O3)CC2)c(=O)oc2c(O)c(O)ccc12 (stereo not drawn)
- IC50 (Large T antigen): 2.43 µM (active)
- AC50 [12]: 3.53 µM (active)
- IC50 (Albumin): > 94.1 µM (inactive)

SMILES: O=C(Nc1nc(-c2ccccc2)cs1)C1CCCCN1S(=O)(=O)c1ccccc1 (stereo not drawn)
- AC50 [7]: 5.89 µM (active)
- AC50 [8]: 58 µM (active)
- AC50 [10]: 5.14 µM (active)

SMILES: Cc1ccc(C2=NN(C(=O)c3ccc(Br)o3)C(c3ccc(C)cc3)C2)cc1 (stereo not drawn)
- AC50 (HEK293): 20.2 µM (active)
- AC50 [11]: 20.2 µM (active)

SMILES: Cc1ccc2nc(-c3cc(N)cc(N)c3)oc2c1
- IC50 [5]: > 122 µM (inactive)
- EC50 (HT-1080): > 50 µM (not active)
- EC50 [13]: 1.01 µM (active)

SMILES: OC(COc1ccc2ccccc2c1Br)Cn1cnc(-c2ccccc2)c1 (stereo not drawn)
- AC50 [4]: 5.02 µM (active)
- IC50 (Major prion protein): 4.17 µM (active)
- IC50 (cells): > 138 µM (inactive)
- EC50 (Streptococcus): 21.7 µM (active)
- EC50 (Streptokinase A): 9.22 µM (active)
- EC50 [14]: > 195 µM (not active)
- CC50 [15]: 9.42 µM (active)
- EC50 [16]: 6.29 µM (active)
